IC50 data for 15 compounds are collected here from patent publication US20090312288A1 (TAKEDA PHARMACEUTICAL COMPANY LIMITED, priority 2008, published 2009).

pIC50: −log10 of the molar value. Where only a bound is given, the exact number is not on record here.

In the assay the target is Aurora B/INCENP (Homo sapiens, UniProt Q96GD4). The experiment in a line: Determination of inhibition of AIK: Aurora B/INCENP direct fluorescence polarization (IMAP) assay. The assay is classed as biochemical. The note with it: 10 uM ATP, 0.8 nM Aurora B/INCENP; values given as bins; read-out: IC50 of Exemplified Compounds Against AIK B.
Sequence of Aurora B/INCENP (Q96GD4 whole entry): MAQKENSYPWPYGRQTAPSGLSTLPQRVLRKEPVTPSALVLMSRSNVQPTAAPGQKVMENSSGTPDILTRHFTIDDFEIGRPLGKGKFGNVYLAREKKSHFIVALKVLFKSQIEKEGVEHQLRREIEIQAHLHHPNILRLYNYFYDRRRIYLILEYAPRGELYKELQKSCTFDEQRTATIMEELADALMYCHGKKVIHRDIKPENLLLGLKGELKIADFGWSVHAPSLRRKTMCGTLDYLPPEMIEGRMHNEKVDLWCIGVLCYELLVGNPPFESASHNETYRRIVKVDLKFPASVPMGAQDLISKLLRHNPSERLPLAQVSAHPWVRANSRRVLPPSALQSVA
Sequence of Aurora B/INCENP (Q9NQS7 whole entry partner): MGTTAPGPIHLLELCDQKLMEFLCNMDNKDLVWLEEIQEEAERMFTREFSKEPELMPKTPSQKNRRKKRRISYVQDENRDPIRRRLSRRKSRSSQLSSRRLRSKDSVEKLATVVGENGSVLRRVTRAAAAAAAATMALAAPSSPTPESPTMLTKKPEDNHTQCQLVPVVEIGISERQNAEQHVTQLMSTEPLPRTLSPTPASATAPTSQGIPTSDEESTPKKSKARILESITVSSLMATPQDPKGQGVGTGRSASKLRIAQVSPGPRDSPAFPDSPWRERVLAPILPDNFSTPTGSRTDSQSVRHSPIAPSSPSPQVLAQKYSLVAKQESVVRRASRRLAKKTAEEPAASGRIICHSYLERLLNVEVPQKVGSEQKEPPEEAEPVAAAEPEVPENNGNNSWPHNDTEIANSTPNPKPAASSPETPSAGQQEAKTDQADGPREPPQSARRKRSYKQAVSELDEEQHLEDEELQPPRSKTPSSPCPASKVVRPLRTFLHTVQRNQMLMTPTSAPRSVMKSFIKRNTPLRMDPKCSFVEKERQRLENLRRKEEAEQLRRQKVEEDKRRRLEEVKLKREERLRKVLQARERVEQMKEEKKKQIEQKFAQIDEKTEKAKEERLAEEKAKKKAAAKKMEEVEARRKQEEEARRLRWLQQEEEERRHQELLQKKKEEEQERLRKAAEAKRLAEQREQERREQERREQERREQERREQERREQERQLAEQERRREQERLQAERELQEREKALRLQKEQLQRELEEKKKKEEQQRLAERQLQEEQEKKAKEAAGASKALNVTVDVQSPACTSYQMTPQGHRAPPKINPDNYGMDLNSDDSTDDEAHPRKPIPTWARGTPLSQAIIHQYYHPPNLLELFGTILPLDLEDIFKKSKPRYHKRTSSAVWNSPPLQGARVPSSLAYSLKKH
In the case of `COc1ccc(-c2cccc(NC(C)=O)c2)c2c1[nH]c1ncc(C)cc12` [Compound 162, N-(3-(8-methoxy-3-methyl-9H-pyrido[2,3-b]indol-5-yl)phenyl)acetamide], the pIC50 was 8.07 to 8.25.

Take `COc1ccc(-c2cccc(NC(=O)C3CC3)c2)c2c1[nH]c1ncc(C)cc12` [Compound 163, N-(3-(8-methoxy-3-methyl-9H-pyrido[2,3-b]indol-5-yl)phenyl)cyclopropanecarboxamide]: the negative logarithm of the IC50 (pIC50) was 7.89 to 8.07. Next, `COc1ccc(-c2cccc(C(=O)NC3CC3)c2)c2c1[nH]c1ncc(C)cc12` [Compound 164, N-cyclopropyl-3-(8-methoxy-3-methyl-9H-pyrido[2,3-b]indol-5-yl)benzamide]: 8.07 to 8.25; `CCN(CC)C(=O)c1cccc(-c2ccc(OC)c3[nH]c4ncc(C)cc4c23)c1` [Compound 165, N,N-diethyl-3-(8-methoxy-3-methyl-9H-pyrido[2,3-b]indol-5-yl)benzamide]: 8.26 to 8.40; `COc1ccc(-c2ccc3c(c2)OCO3)c2c1[nH]c1ncc(C)cc12` [Compound 166, 5-(benzo[d][1,3]dioxol-5-yl)-8-methoxy-3-methyl-9H-pyrido[2,3-b]indole]: less than 7.89. Next, `COc1ccc(-c2cccc(C(=O)NCCO)c2)c2c1[nH]c1ncc(C)cc12` [Compound 168, N-(2-hydroxyethyl)-3-(8-methoxy-3-methyl-9H-pyrido[2,3-b]indol-5-yl)benzamide]: 7.89 to 8.07; `CCNS(=O)(=O)c1cccc(-c2ccc(OC)c3[nH]c4ncc(C)cc4c23)c1` [Compound 170, N-ethyl-3-(8-methoxy-3-methyl-9H-pyrido[2,3-b]indol-5-yl)benzenesulfonamide]: greater than 8.40.

Consider `CCOc1ccc(-c2cccc(S(=O)(=O)CC)c2)c2c1[nH]c1ncc(C)cc12` [Compound 171, 8-ethoxy-5-(3-(ethylsulfonyl)phenyl)-3-methyl-9H-pyrido[2,3-b]indole], for which the pIC50 is 8.07 to 8.25. In the case of `CCS(=O)(=O)c1cccc(-c2ccc(OC(F)F)c3[nH]c4ncc(C)cc4c23)c1` [Compound 172, 8-(difluoromethoxy)-5-(3-(ethylsulfonyl)phenyl)-3-methyl-9H-pyrido[2,3-b]indole], the negative-log IC50 (pIC50) was 8.07 to 8.25. Next, `CCS(=O)(=O)c1cccc(-c2ccc(OCC(F)(F)F)c3[nH]c4ncc(C)cc4c23)c1` [Compound 173, 5-(3-(ethylsulfonyl)phenyl)-3-methyl-8-(2,2,2-trifluoroethoxy)-9H-pyrido[2,3-b]indole]: 8.07 to 8.25. To `CCS(=O)(=O)c1cccc(-c2ccc(OCC3CCN(C)CC3)c3[nH]c4ncc(C)cc4c23)c1` [Compound 177, 5-(3-(ethylsulfonyl)phenyl)-3-methyl-8-((1-methylpiperidin-4-yl)methoxy)-9H-pyrido[2,3-b]indole] belongs 7.89 to 8.07. Next, `Cc1cnc2[nH]c3c(OCC4CCN(C)CC4)ccc(-c4cccc(C(=O)NC5CC5)c4)c3c2c1` [Compound 178, N-cyclopropyl-3-(3-methyl-8-((1-methylpiperidin-4-yl)methoxy)-9H-pyrido[2,3-b]indol-5-yl)benzamide]: less than 7.89. Regarding `Cc1cnc2[nH]c3c(OCC4CCN(C)CC4)ccc(-c4cccc(S(=O)(=O)C5CC5)c4)c3c2c1` [Compound 179, 5-(3-(cyclopropylsulfonyl)phenyl)-3-methyl-8-((1-methylpiperidin-4-yl)methoxy)-9H-pyrido[2,3-b]indole], the pIC50 is 8.07 to 8.25. To `CNS(=O)(=O)c1cccc(-c2ccc(OCC3CCN(C)CC3)c3[nH]c4ncc(C)cc4c23)c1` [Compound 180, N-methyl-3-(3-methyl-8-((1-methylpiperidin-4-yl)methoxy)-9H-pyrido[2,3-b]indole-5-yl)benzenesulfonamide] belongs 7.89 to 8.07. To `Cc1cnc2[nH]c3c(OCC4CCN(C)CC4)ccc(-c4cccc(S(=O)(=O)N(C)C)c4)c3c2c1` [Compound 181, N,N-dimethyl-3-(3-methyl-8-((1-methylpiperidin-4-yl)methoxy)-9H-pyrido[2,3-b]indole-5-yl)benzenesulfonamide] belongs 7.89 to 8.07.
